Experimental data: patent publication US8063071B2 (GlaxoSmithKline, LLC, priority 2007, dated 2011)
Where a name gives a salt, the structure may show the parent alone.

Key:
[1] = test system: human monocyte stimulated cytokine production (TNF-α); test: Monocyte assay (LPS-stimulated TNF-α production); type: cell-based; conditions: for inhibition at 0.3 µM: read-out: inhibition at 300 nM in the monocyte assay; for IC50: 24 h, 200 ng/mL LPS, TNF-α by ELISA
Summary of the method: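 TNF-α release was measured by ELISA after 24 hrs at 37 C. Cells were stimulated with 200 ng/mL E. coli LPS, with compound added 30 minutes beforehand (0.1% DMSO vehicle). Cells were Ficoll/MACS-isolated CD14+ human monocytes adhered at 1×10^6 cells/mL, and viability was checked by trypan blue.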

[2] = molecular target: T1, Recombinant human IKKβ (residues 1-737) (Homo sapiens, UniProt O14920); test: IKK2 assay (TR-FRET); type: biochemical; conditions: ATP 1 μM final, read-out: pIC50 against IKK2 (converted)
T1 construct: Recombinant human IKKβ (residues 1-737); GST (C); made in house
T1 sequence (O14920 1-737): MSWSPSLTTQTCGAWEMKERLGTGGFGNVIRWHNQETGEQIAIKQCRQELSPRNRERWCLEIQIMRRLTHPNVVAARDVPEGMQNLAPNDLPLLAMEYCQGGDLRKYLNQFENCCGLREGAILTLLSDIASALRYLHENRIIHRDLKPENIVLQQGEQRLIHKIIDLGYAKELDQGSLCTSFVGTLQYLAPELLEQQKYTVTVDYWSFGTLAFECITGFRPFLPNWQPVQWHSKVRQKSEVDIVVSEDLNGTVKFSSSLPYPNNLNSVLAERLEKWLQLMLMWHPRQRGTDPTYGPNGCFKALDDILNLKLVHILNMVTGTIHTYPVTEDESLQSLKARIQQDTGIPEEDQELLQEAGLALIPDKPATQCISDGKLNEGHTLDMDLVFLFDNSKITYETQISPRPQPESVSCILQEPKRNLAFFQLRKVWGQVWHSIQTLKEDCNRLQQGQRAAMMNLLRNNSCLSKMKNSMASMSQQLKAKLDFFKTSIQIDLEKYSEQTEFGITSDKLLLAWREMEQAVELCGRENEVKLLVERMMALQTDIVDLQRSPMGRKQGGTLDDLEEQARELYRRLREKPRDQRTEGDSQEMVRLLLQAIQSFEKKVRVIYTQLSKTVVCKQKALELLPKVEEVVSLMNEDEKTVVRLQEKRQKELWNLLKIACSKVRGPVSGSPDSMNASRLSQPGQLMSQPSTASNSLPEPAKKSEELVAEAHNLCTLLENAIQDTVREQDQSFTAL
Summary of the method: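 TR-FRET readout (665 nm over 620 nm Eu reference) of GST-IB Ser32/36 phosphorylation after 60 min detection. Reaction: 1 μM ATP, 25 nM substrate, 0.5-5 nM GST-fused IKKβ 1-737 from baculovirus, pH 7.4 HEPES buffer, 1.7% DMSO, 15 min room temperature, EDTA-terminated.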

## CCS(=O)(=O)N1CCC(c2c[nH]c3c(C(N)=O)cc(-c4ccc(CNCCC(C)C)s4)cc23)CC1 [Example 190, 3-[1-(ethylsulfonyl)-4-piperidinyl]-5-(5-{[(3-methylbutyl)amino]methyl}-2-thienyl)-1H-indole-7-carboxamide]
[1]
  inhibition at 0.3 µM: 0 to 60%
[2]
  IC50: ≤ 10 µM

## CCS(=O)(=O)N1CCC(c2c[nH]c3c(C(N)=O)cc(-c4cncc(CNC(C)C)c4)cc23)CC1 [Example 191, 3-[1-(ethylsulfonyl)-4-piperidinyl]-5-(5-{[(1-methylethyl)amino]methyl}-3-pyridinyl)-1H-indole-7-carboxamide]
[1]
  IC50: ≤ 1.5 µM
[2]
  IC50: ≤ 10 µM

## CCC(CC)CNCc1ccc(-c2cc(C(N)=O)c3[nH]cc(C4CCN(S(=O)(=O)CC)CC4)c3c2)s1 [Example 192, 5-(5-{[(2-ethylbutyl)amino]methyl}-2-thienyl)-3-[1-(ethylsulfonyl)-4-piperidinyl]-1H-indole-7-carboxamide]
[1]
  IC50: > 1 µM
[2]
  IC50: ≤ 10 µM

## CCOCCCNCc1ccc(-c2cc(C(N)=O)c3[nH]cc(C4CCN(S(=O)(=O)CC)CC4)c3c2)s1 [Example 193, 5-[5-({[3-(ethyloxy)propyl]amino}methyl)-2-thienyl]-3-[1-(ethylsulfonyl)-4-piperidinyl]-1H-indole-7-carboxamide]
[1]
  IC50: > 1 µM
[2]
  IC50: ≤ 10 µM

## CCS(=O)(=O)N1CCC(c2c[nH]c3c(C(N)=O)cc(-c4ccc(CNCCCOC)s4)cc23)CC1 [Example 194, 3-[1-(ethylsulfonyl)-4-piperidinyl]-5-[5-({[3-(methyloxy)propyl]amino}methyl)-2-thienyl]-1H-indole-7-carboxamide]
[1]
  IC50: > 1 µM
[2]
  IC50: ≤ 10 µM

## CCS(=O)(=O)N1CCC(c2c[nH]c3c(C(N)=O)cc(-c4ccc(CNCC5CCCCC5)s4)cc23)CC1 [Example 195, 5-(5-{[(cyclohexylmethyl)amino]methyl}-2-thienyl)-3-[1-(ethylsulfonyl)-4-piperidinyl]-1H-indole-7-carboxamide]
[1]
  inhibition at 0.3 µM: 0 to 60%
[2]
  IC50: ≤ 10 µM

## CCS(=O)(=O)N1CCC(c2c[nH]c3c(C(N)=O)cc(-c4ccc(CNCCCOC(C)C)s4)cc23)CC1 [Example 196, 3-[1-(ethylsulfonyl)-4-piperidinyl]-5-{5-[({3-[(1-methylethyl)oxy]propyl}amino)methyl]-2-thienyl}-1H-indole-7-carboxamide]
[1]
  IC50: > 1 µM
[2]
  IC50: ≤ 10 µM

## CCOCCNCc1ccc(-c2cc(C(N)=O)c3[nH]cc(C4CCN(S(=O)(=O)CC)CC4)c3c2)s1 [Example 197, 5-[5-({[2-(ethyloxy)ethyl]amino}methyl)-2-thienyl]-3-[1-(ethylsulfonyl)-4-piperidinyl]-1H-indole-7-carboxamide]
[1]
  IC50: > 1 µM
[2]
  IC50: ≤ 10 µM

## CCS(=O)(=O)N1CCC(c2c[nH]c3c(C(N)=O)cc(-c4ccc(CN[C@@H](C)C(C)(C)C)s4)cc23)CC1 [Example 200, 3-[1-(ethylsulfonyl)-4-piperidinyl]-5-[5-({[(1S)-1,2,2-trimethylpropyl]amino}methyl)-2-thienyl]-1H-indole-7-carboxamide]
[1]
  IC50: > 1 µM
[2]
  IC50: ≤ 10 µM

## CCCCCCNCc1ccc(-c2cc(C(N)=O)c3[nH]cc(C4CCN(S(=O)(=O)CC)CC4)c3c2)s1 [Example 201, 3-[1-(ethylsulfonyl)-4-piperidinyl]-5-{5-[(hexylamino)methyl]-2-thienyl}-1H-indole-7-carboxamide]
[1]
  IC50: > 1 µM
[2]
  IC50: ≤ 10 µM

## CCS(=O)(=O)N1CCC(c2c[nH]c3c(C(N)=O)cc(-c4ccnc(N(C)C)c4)cc23)CC1 [Example 202, 5-[2-(dimethylamino)-4-pyridinyl]-3-[1-(ethylsulfonyl)-4-piperidinyl]-1H-indole-7-carboxamide trifluoroacetate]
[1]
  IC50: > 1 µM
[2]
  IC50: ≤ 10 µM

## CCS(=O)(=O)N1CCC(c2c[nH]c3c(C(N)=O)cc(-c4ccnc(N5CCCC5)c4)cc23)CC1 [Example 203, trifluoroacetate]
[1]
  IC50: > 1 µM
[2]
  IC50: ≤ 10 µM

## CCS(=O)(=O)N1CCC(c2c[nH]c3c(C(N)=O)cc(-c4ccnc(N5CCOCC5)c4)cc23)CC1 [Example 204, 3-[1-(ethylsulfonyl)-4-piperidinyl]-5-[2-(4-morpholinyl)-4-pyridinyl]-1H-indole-7-carboxamide trifluoroacetate]
[1]
  IC50: > 1 µM
[2]
  IC50: ≤ 10 µM

## CCS(=O)(=O)N1CCC(c2c[nH]c3c(C(N)=O)cc(-c4ccnc(NCC(C)C)c4)cc23)CC1 [Example 205, 3-[1-(ethylsulfonyl)-4-piperidinyl]-5-{2-[(2-methylpropyl)amino]-4-pyridinyl}-1H-indole-7-carboxamide trifluoroacetate]
[1]
  IC50: > 1 µM
[2]
  IC50: ≤ 10 µM

## CCS(=O)(=O)N1CCC(c2c[nH]c3c(C(N)=O)cc(-c4ccnc(NCC(C)(C)C)c4)cc23)CC1 [Example 206, 5-{2-[(2,2-dimethylpropyl)amino]-4-pyridinyl}-3-[1-(ethylsulfonyl)-4-piperidinyl]-1H-indole-7-carboxamide trifluoroacetate]
[1]
  IC50: > 1 µM
[2]
  IC50: ≤ 10 µM

## CCCNc1cc(-c2cc(C(N)=O)c3[nH]cc(C4CCN(S(=O)(=O)CC)CC4)c3c2)ccn1 [Example 207, 3-[1-(ethylsulfonyl)-4-piperidinyl]-5-[2-(propylamino)-4-pyridinyl]-1H-indole-7-carboxamide trifluoroacetate]
[1]
  IC50: > 1 µM
[2]
  IC50: ≤ 10 µM

## CCS(=O)(=O)N1CCC(c2c[nH]c3c(C(N)=O)cc(-c4cc(CNC)cs4)cc23)CC1 [Example 208, 3-[1-(ethylsulfonyl)-4-piperidinyl]-5-{4-[(methylamino)methyl]-2-thienyl}-1H-indole-7-carboxamide trifluoroacetate]
[1]
  IC50: ≤ 1.5 µM
[2]
  IC50: ≤ 10 µM

## CCS(=O)(=O)N1CCC(c2c[nH]c3c(C(N)=O)cc(-c4cc(CN5CCCC5)cs4)cc23)CC1 [Example 209, 3-[1-(ethylsulfonyl)-4-piperidinyl]-5-[4-(1-pyrrolidinylmethyl)-2-thienyl]-1H-indole-7-carboxamide trifluoroacetate]
[1]
  IC50: ≤ 1.5 µM
[2]
  IC50: ≤ 10 µM

## CCS(=O)(=O)N1CCC(c2c[nH]c3c(C(N)=O)cc(-c4cc(CNCC(C)C)cs4)cc23)CC1 [Example 210, 3-[1-(ethylsulfonyl)-4-piperidinyl]-5-(4-{[(2-methylpropyl)amino]methyl}-2-thienyl)-1H-indole-7-carboxamide trifluoroacetate]
[1]
  IC50: ≤ 1.5 µM
[2]
  IC50: ≤ 10 µM

## CCS(=O)(=O)N1CCC(c2c[nH]c3c(C(N)=O)cc(-c4cc(CN(C)C)cs4)cc23)CC1 [Example 211, 5-{4-[(dimethylamino)methyl]-2-thienyl}-3-[1-(ethylsulfonyl)-4-piperidinyl]-1H-indole-7-carboxamide trifluoroacetate]
[1]
  IC50: ≤ 1.5 µM
[2]
  IC50: ≤ 10 µM

## CCS(=O)(=O)N1CCC(c2c[nH]c3c(C(N)=O)cc(-c4csc([C@H](C)N5CCCC5)c4)cc23)CC1 [Example 212, 3-[1-(ethylsulfonyl)-4-piperidinyl]-5-{5-[(1S)-1-(1-pyrrolidinyl)ethyl]-3-thienyl}-1H-indole-7-carboxamide]
[1]
  IC50: ≤ 1.5 µM
[2]
  IC50: ≤ 10 µM

## CCS(=O)(=O)N1CCC(c2c[nH]c3c(C(N)=O)cc(-c4csc([C@@H](C)N5CCCC5)c4)cc23)CC1 [Example 213, 3-[1-(ethylsulfonyl)-4-piperidinyl]-5-{5-[(1R)-1-(1-pyrrolidinyl)ethyl]-3-thienyl}-1H-indole-7-carboxamide]
[1]
  IC50: ≤ 1.5 µM
[2]
  IC50: ≤ 10 µM

## CCS(=O)(=O)N1CCC(c2c[nH]c3c(C(N)=O)cc(-c4cc(CNCCCOC)cs4)cc23)CC1 [Example 214, 3-[1-(ethylsulfonyl)-4-piperidinyl]-5-[4-({[3-(methyloxy)propyl]amino}methyl)-2-thienyl]-1H-indole-7-carboxamide trifluoroacetate]
[1]
  IC50: ≤ 1.5 µM
[2]
  IC50: ≤ 10 µM

## CCS(=O)(=O)N1CCC(c2c[nH]c3c(C(N)=O)cc(-c4cc(CN5CCC[C@H]5COC)cs4)cc23)CC1 [Example 215, 3-[1-(ethylsulfonyl)-4-piperidinyl]-5-[4-({(2S)-2-[(methyloxy)methyl]-1-pyrrolidinyl}methyl)-2-thienyl]-1H-indole-7-carboxamide trifluoroacetate]
[1]
  IC50: ≤ 1.5 µM
[2]
  IC50: ≤ 10 µM
